One assay concerns the target T1, A2aR (Homo sapiens, UniProt P29274).
T1 construct: expressed in transfected cells
The assay is described as follows: A2aR biochemical assay (TR-FRET binding, Tag-lite A2aR labelled cells, fluorescent antagonist). Conditions: 10 nM fluorescent A2aR antagonist; for inhibition at 20 µM: 20 μM compound, vs DMSO control, read-out: % inhibition at 20 μM (Percent inhibition data in A2aR); for IC50: four-parameter curve fit, read-out: Potency (IC50 values) of selected compounds in A2aR, group. The procedure:
The compounds of present invention were assayed for A2aR enzyme binding activity in a TR-FRET based method. Typically, 10 μL of A2aR labelled cells in assay buffer (Tag-lite, 1×) is added to a 384-well plate containing 5 μL of a compound of present invention in final 1% DMSO, serially diluted in 1:5 in a 5-6 point titration. The aforesaid compound and cells are incubated for 30 minutes at room temperature. Next, 5 μL of A2aR antagonist (fluorescent ligand) in assay buffer is added to the plate. The final concentration of A2aR antagonist is 10 nM. Following 30 minutes reaction at room temperature, the plate was read on a plate reader (Ex: 340 nm Em: 615 nm and 665 nm) to measure the binding of test compound to A2aR cells. The results are interpreted as percentage inhibition as presented in Table-2A of binding by the test compound with respect to the DMSO control.
A general note: TR-FRET usually uses a lanthanide donor and a delayed reading to cut background.

Assay [1] addresses T2, human-CD73 (Trp27-Lys547, His-tag) (Homo sapiens, UniProt P21589).
T2 construct: human-CD73 (Trp27-Lys547, His-tag); His-tag
T2 sequence (P21589 27-547): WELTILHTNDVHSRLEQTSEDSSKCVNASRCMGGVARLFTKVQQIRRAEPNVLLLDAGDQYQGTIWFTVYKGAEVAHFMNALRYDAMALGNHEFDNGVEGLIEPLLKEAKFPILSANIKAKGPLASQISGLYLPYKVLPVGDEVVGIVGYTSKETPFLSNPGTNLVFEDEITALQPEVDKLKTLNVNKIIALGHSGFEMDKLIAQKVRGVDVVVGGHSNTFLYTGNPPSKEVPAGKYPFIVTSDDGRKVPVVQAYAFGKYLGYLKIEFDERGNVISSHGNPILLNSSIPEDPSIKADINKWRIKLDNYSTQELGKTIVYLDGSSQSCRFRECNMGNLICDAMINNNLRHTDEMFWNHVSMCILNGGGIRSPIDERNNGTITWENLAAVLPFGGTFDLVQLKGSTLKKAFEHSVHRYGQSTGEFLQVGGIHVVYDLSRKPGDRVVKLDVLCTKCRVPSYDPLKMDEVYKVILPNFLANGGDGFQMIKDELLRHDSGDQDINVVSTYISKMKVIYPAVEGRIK
Kind of assay: CD73 biochemical assay (colorimetric, Malachite Green phosphate detection). To be noted: 2 nM CD73, 50 μM AMP; for inhibition at 20 µM: read-out: % inhibition at 20 μM (Percent inhibition data in CD73); for IC50: four-parameter curve fit, read-out: Potency (IC50 values) of selected compounds in CD73, group. The procedure:
A colorimetric-based method was used for assaying compounds of the invention for CD73 enzyme inhibitory activity. Human CD73 catalyzes the conversion of AMP to adenosine with the release of orthophosphate. A Malachite Green Phosphate Detection kit is used to measure the formation of orthophosphate product. […] A compound of the present invention and enzyme are incubated for 30 minutes at room temperature. Next, 20 μL of AMP in assay buffer is added to the plate. The final concentration of CD73 and AMP are 2 nM and 50 μM respectively. Following 30 minutes reaction at room temperature, 20 μL of Malachite reagent is added to all the reaction wells. The formation of green complex formed between Malachite Green, molybdate and free orthophosphate is measured on a plate reader (620 nm).

Broadly, the inhibition is the change of the read-out against control, counted positive when it falls. What is called IC50 is the concentration needed to halve the response being measured. What is called % inhibition is the share of the control response that was lost under treatment.

Structures can show the parent of a compound that is named as a salt. Bounds are passed on as bounds.

T1 sequence (P29274 whole entry): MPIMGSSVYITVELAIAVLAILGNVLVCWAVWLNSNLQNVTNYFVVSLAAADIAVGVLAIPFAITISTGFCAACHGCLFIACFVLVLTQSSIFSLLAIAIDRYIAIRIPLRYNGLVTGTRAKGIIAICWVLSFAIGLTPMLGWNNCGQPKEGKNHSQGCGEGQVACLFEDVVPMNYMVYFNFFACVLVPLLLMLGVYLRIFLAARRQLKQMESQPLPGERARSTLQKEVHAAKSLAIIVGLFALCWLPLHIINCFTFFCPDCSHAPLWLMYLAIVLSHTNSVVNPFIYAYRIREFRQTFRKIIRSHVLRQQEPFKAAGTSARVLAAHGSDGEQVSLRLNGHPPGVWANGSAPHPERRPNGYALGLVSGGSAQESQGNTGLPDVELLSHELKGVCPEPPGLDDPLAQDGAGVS

As to `NC(=O)c1cc(S(=O)(=O)Nc2ccc(CCCNc3nc(N)n4nc(-c5ccco5)nc4n3)cc2F)cc(Cl)c1O` [Example A15, 5-(N-(4-(3-((7-amino-2-(furan-2-yl)-[1,2,4]triazolo[1,5-a][1,3,5]triazin-5-yl)amino)propyl)-2-fluorophenyl)sulfamoyl)-3-chloro-2-hydroxybenzamide], the inhibition at 20 µM at A2aR was determined as 83%; in assay [1] (20 μM compound), 96%. The IC50 in assay [1] fell in the range of 110 to 1000 nM.

In the case of `COc1c(Cl)cc(S(=O)(=O)Nc2ccc(CCCNc3nc(N)n4nc(-c5ccco5)nc4n3)cc2)cc1C(N)=O` [Example A16, 5-(N-(4-(3-((7-amino-2-(furan-2-yl)-[1,2,4]triazolo[1,5-a][1,3,5]triazin-5-yl)amino)propyl)phenyl)sulfamoyl)-3-chloro-2-methoxybenzamide], the inhibition at 20 µM came to 83% at A2aR and 63% in assay [1] (20 μM compound).

In the case of `CN(CCCc1ccc(NS(=O)(=O)c2cc(Cl)c(O)c(C(N)=O)c2)cc1)c1nc(N)n2nc(-c3ccco3)nc2n1` [Example A17, 5-(N-(4-(3-((7-amino-2-(furan-2-yl)-[1,2,4]triazolo[1,5-a][1,3,5]triazin-5-yl)(methyl)amino)propyl)phenyl)sulfamoyl)-3-chloro-2-hydroxybenzamide], the inhibition at 20 µM at A2aR is 82%; in assay [1] (20 μM compound), 95%. Moreover, in assay [1], the half-inhibitory concentration (IC50) was 110 to 1000 nM.

For `NC(=O)c1cc(S(=O)(=O)Nc2ccc(CCCCNc3nc(N)n4nc(-c5ccco5)nc4n3)cc2)cc(Cl)c1O` [Example A18, 5-(N-(4-(4-((7-amino-2-(furan-2-yl)-[1,2,4]triazolo[1,5-a][1,3,5]triazin-5-yl)amino)butyl)phenyl)sulfamoyl)-3-chloro-2-hydroxybenzamide], the results for the inhibition at 20 µM (on A2aR; in assay [1] (20 μM compound)) were 82% and 87%, respectively. For the same compound, the IC50 in assay [1] is > 1000 nM.

As to `NC(=O)c1cc(S(=O)(=O)Nc2ccc(CCCNc3cc4nc(-c5ccco5)nn4c(N)n3)cc2)cc(Cl)c1O` [Example A19, 5-(N-(4-(3-((5-amino-2-(furan-2-yl)-[1,2,4]triazolo[1,5-c]pyrimidin-7-yl)amino)propyl)phenyl)sulfamoyl)-3-chloro-2-hydroxybenzamide], the inhibition at 20 µM at A2aR came to 83%; in assay [1] (20 μM compound), 96%. The IC50 in assay [1] was > 1000 nM.

Take `NC(=O)c1cc(S(=O)(=O)Nc2ccc(CCCNc3cc(N)n4nc(-c5ccco5)nc4n3)cc2)cc(Cl)c1O` [Example A20, 5-(N-(4-(3-((7-amino-2-(furan-2-yl)-[1,2,4]triazolo[1,5-a]pyrimidin-5-yl)amino)propyl)phenyl)sulfamoyl)-3-chloro-2-hydroxybenzamide]: the inhibition at 20 µM came out at 80% at A2aR and 92% in assay [1] (20 μM compound). The IC50 on A2aR is 25.1 to 50 nM; in assay [1] it was < 100 nM.

Regarding `NC(=O)c1cc(S(=O)(=O)Nc2ccc(CCCOc3cc(N)n4nc(-c5ccco5)nc4n3)cc2)cc(Cl)c1O` [Example A21, 5-(N-(4-(3-((7-amino-2-(furan-2-yl)-[1,2,4]triazolo[1,5-a]pyrimidin-5-yl)oxy)propyl)phenyl)sulfamoyl)-3-chloro-2-hydroxybenzamide], the inhibition at 20 µM on A2aR is 82%; in assay [1] (20 μM compound), 98%. Besides, the half-inhibitory concentration (IC50) in assay [1] lay within 110 to 1000 nM.

As to `NC(=O)c1cc(S(=O)(=O)Nc2ccc(CCCNc3cc(N)n4nc(-c5ccco5)nc4n3)c(F)c2)cc(Cl)c1O` [Example A22, 5-(N-(4-(3-((7-amino-2-(furan-2-yl)-[1,2,4]triazolo[1,5-a]pyrimidin-5-yl)amino)propyl)-3-fluorophenyl)sulfamoyl)-3-chloro-2-hydroxybenzamide], the inhibition at 20 µM was 81% at A2aR and 95% in assay [1] (20 μM compound). Besides, the IC50 in assay [1] is < 100 nM.

For the compound `NC(=O)c1cc(S(=O)(=O)Nc2ccc(CCCNc3cc(N)n4nc(-c5ccco5)cc4n3)cc2)cc(Cl)c1O` [Example A24], the figures for the inhibition at 20 µM (on A2aR; in assay [1] (20 μM compound)) were 79% and 92%, respectively. Further, the IC50 was > 50 nM on A2aR and < 100 nM in assay [1].

On to `COC(=O)[C@@H](NC(=O)Oc1c(Cl)cc(S(=O)(=O)Nc2ccc(CCCNc3nc(N)n4nc(-c5ccco5)nc4n3)cc2)cc1C(N)=O)C(C)C` [Example A25, Methyl ((4-(N-(4-(3-((7-amino-2-(furan-2-yl)-[1,2,4]triazolo[1,5-a][1,3,5]triazin-5-yl)amino)propyl)phenyl)sulfamoyl)-2-carbamoyl-6-chlorophenoxy)carbonyl)valinate], for which the inhibition at 20 µM on A2aR was determined as 81%; in assay [1] (20 μM compound), 99%. For the same compound, the IC50 in assay [1] was < 100 nM.

For `NC(=O)c1cc(S(=O)(=O)Nc2ccc(CCCNc3nc(N)n4nc(-c5ccco5)nc4n3)cc2)cc(Cl)c1O` [Example A26, 5-(N-(4-(3-((7-amino-2-(furan-2-yl)-[1,2,4]triazolo[1,5-a][1,3,5]triazin-5-yl)amino)propyl)phenyl)sulfamoyl)-3-chloro-2-hydroxybenzamide sodium salt], at A2aR, the inhibition at 20 µM was 80%. Also, the “% inhibition at 20 μM (Percent inhibition data in CD73)” value in assay [1] (20 μM compound, sodium salt) stood at 96%.

With `Nc1nc(NCCc2ccc(NS(=O)(=O)c3cc(Cl)c4c(c3)CC(=O)N4)cc2)nc2nc(-c3ccco3)nn12` [Example B1, N-(4-(2-((7-amino-2-(furan-2-yl)-[1,2,4]triazolo[1,5-a][1,3,5]triazin-5-yl)amino)ethyl)phenyl)-7-chloro-2-oxoindoline-5-sulfonamide], the results for the inhibition at 20 µM (on A2aR; in assay [1] (20 μM compound)) were 80% and 35%, respectively.

As to `Nc1nc(NCCc2ccc(NS(=O)(=O)c3cc(Cl)c4c(c3)C(Cl)(Cl)C(=O)N4)cc2)nc2nc(-c3ccco3)nn12` [Example B2, N-(4-(2-((7-amino-2-(furan-2-yl)-[1,2,4]triazolo[1,5-a][1,3,5]triazin-5-yl)amino)ethyl)phenyl)-3,3,7-trichloro-2-oxoindoline-5-sulfonamide], the results for the inhibition at 20 µM (on A2aR; in assay [1] (20 μM compound)) were 79% and 39%, respectively.

`Nc1nc(NCCc2ccc(NS(=O)(=O)c3cc(Cl)c4[nH]ccc(=O)c4c3)cc2)nc2nc(-c3ccco3)nn12` [Example B3, N-(4-(2-((7-amino-2-(furan-2-yl)-[1,2,4]triazolo[1,5-a][1,3,5]triazin-5-yl)amino)ethyl)phenyl)-8-chloro-4-oxo-1,4-dihydroquinoline-6-sulfonamide]: the inhibition at 20 µM was found to be 88% on A2aR and 9% in assay [1] (20 μM compound).

Turning to `Nc1nc(NCCCc2ccc(NS(=O)(=O)c3cc(Cl)c4oc(=O)[nH]c(=O)c4c3)cc2)nc2nc(-c3ccco3)nn12` [Example B4, N-(4-(3-((7-amino-2-(furan-2-yl)-[1,2,4]triazolo[1,5-a][1,3,5]triazin-5-yl)amino)propyl)phenyl)-8-chloro-2,4-dioxo-3,4-dihydro-2H-benzo[e][1,3]oxazine-6-sulfonamide], the inhibition at 20 µM on A2aR is 86%; in assay [1] (20 μM compound), 99%.

Turning to `NC(=O)c1cc(S(=O)(=O)Nc2ccc(NCCNc3nc(N)n4nc(-c5ccco5)nc4n3)cc2)cc(Cl)c1O` [Example C1, 5-(N-(4-((2-((7-amino-2-(furan-2-yl)-[1,2,4]triazolo[1,5-a][1,3,5]triazin-5-yl)amino)ethyl)amino)phenyl)sulfamoyl)-3-chloro-2-hydroxybenzamide], the values for the inhibition at 20 µM (on A2aR; in assay [1] (20 μM compound)) were 81% and 100%, respectively. Also, the IC50 at A2aR is < 25 nM; in assay [1] it was 110 to 1000 nM.

Consider `NC(=O)c1cc(S(=O)(=O)Nc2ccc3ccn(CCNc4nc(N)n5nc(-c6ccco6)nc5n4)c3c2)cc(Cl)c1O` [Example D1, 5-(N-(1-(2-((7-amino-2-(furan-2-yl)-[1,2,4]triazolo[1,5-a][1,3,5]triazin-5-yl)amino)ethyl)-1H-indol-6-yl)sulfamoyl)-3-chloro-2-hydroxybenzamide], for which the inhibition at 20 µM was 85% at A2aR and 49% in assay [1] (20 μM compound). For the same compound, in assay [1], the IC50 was 110 to 1000 nM.
